Results taken from patent US20040054010A1, “Endosulfan formulation and methods of use thereof” (priority 2000, published 2004).
Counter-ions that a name gives are not always drawn. Like-named read-outs stand apart in the source and are kept apart here.

What was measured:
[1] = test system: GABA-gated chloride channel; details: Abalis et al., 1985, 1986; Gant et al., 1987; cited from earlier work
Rats [2] = details: ingestion, Goebel et al., 1982; cited from earlier work
[3] = test system: Musca domestica (house fly); details: topical application in acetone, cited from earlier work
Helicoverpa zea = details: topical application in acetone; Walfenbarger and Guerra, 1972; cited from earlier work
Mice = details: ingestion, Dorough et al., 1978; cited from earlier work
Heliothis virescens = details: topical application in acetone; Walfenbarger and Guerra, 1972; cited from earlier work
Rats [4] = assay: Acute toxicity after ingestion by rats; format: in vivo; details: rats and mice (Table 1)
Text: A comparison of the acute toxicity of the isomers and the metabolite endosulfan sulfate after ingestion by rats and mice is shown in Table 1. […] Most studies investigating the chronic toxicity of endosulfan in mammals have not differentiated between the isomers. An exception is the neurotoxic action of endosulfan that has been attributed to the alpha-isomer.

[5] = Singh et al., 1991, cited from earlier work

Row | Structure (SMILES) | potency at inhibiting GABA-induced chloride flux relative to the beta-isomer [1] | LD50 (Rats [2]) | LD50 ([3]; Barnes and Ware, 1965) | LD50 ([3]; Lindquist and Dahm, 1957) | LD50 (Helicoverpa zea) | LD50 (Mice) | LD50 (Heliothis virescens) | acute toxicity relative to the beta-isomer (Rats [4]) | susceptibility to photolysis relative to the alpha-isomer [5] | vulnerability to chemical hydrolysis relative to the alpha-isomer ([5]; neutral and alkali pH)
1 | O=S1OC[C@@H]2[C@H](CO1)[C@@]1(Cl)C(Cl)=C(Cl)[C@]2(Cl)C1(Cl)Cl (stereo partly drawn) [alpha-endosulfan] | much more potent | 76 mg/kg | 5.5 µg/g | 0.14 μg · fly^−1 | 630 µg/g | 11 mg/kg | high* | approximately four fold higher |  | 
2 | O=S1OC[C@@H]2[C@H](CO1)[C@]1(Cl)C(Cl)=C(Cl)[C@]2(Cl)C1(Cl)Cl (stereo partly drawn) [beta-endosulfan] |  | 240 mg/kg | 9.0 µg/g | 0.19 μg · fly^−1 | 4140 µg/g | 36 mg/kg | 4960 µg/g |  | over twice as susceptible | approximately 25%
3 | O=S1(=O)OCC2C(CO1)C1(Cl)C(Cl)=C(Cl)C2(Cl)C1(Cl)Cl (stereo not shown) [endosulfan sulfate] |  | 76 mg/kg | 9.5 µg/g |  | 820 µg/g | 8 mg/kg | high* | approximately four fold higher |  | 
